Laboratory results reported in PubChem BioAssay AID179 (DTP/NCI, 2004).
The source made the active and inactive calls.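 The calls were made as follows: active = compounds giving half or more protection of infected cells from virus-caused growth loss, again on retest; inactive = the rest.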

System: CEM cells HIV-1 protection, formazan growth assay
Test: NCI AIDS Antiviral Assay
Details: for IC50: measured here: growth of uninfected CEM cells
Outline: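 CEM (human) cells, HIV-1 infected vs uninfected, 5-point dosing, formazan growth read-out. Retest threshold 50% protection.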

SMILES | EC50 | IC50 | outcome
NS(=O)(=O)c1cc(=O)[nH]c(=O)[nH]1 | > 457 µM | 251 µM | 
CC/C=C\C/C=C\C/C=C\C/C=C\CCC(=O)OC(COC(=O)CCCCCCC/C=C\C/C=C\C/C=C\CC)COC1OC(CO)C(O)C(O)C1O (stereo not drawn) | > 38 µM | > 38 µM | 
N#Cc1cccc(/C=C(/C(=O)c2ccccc2)c2ccccc2)c1 | > 17 µM | 9.55 µM | 
CCCCCCCCCCCCCCCCC(C(=O)OC)S(=O)(=O)O (stereo not drawn) | > 200 µM | 123 µM | 
CC(C)(C)C(=O)O/C=C\OC1CCCC1(c1ccccc1)c1ccccc1 (stereo not drawn) | > 200 µM | 9.55 µM | 
CCN(CC)CC(C)Nc1cc(C)nc2c1ccc1c2ccc2c(NC(C)CN(CC)CC)cc(C)nc21 (stereo not drawn) | > 380 µM | 234 µM | 
O=c1oc2ccccc2c(O)c1C(c1ccc2c(c1)OCO2)N1CCCC1 (stereo not drawn) | > 200 µM | 93.3 µM | 
COC(=O)c1cc(C#N)[nH]c1-c1ccc(C)s1 | > 200 µM | 35.5 µM | 
CC(=O)OC1CC2C(C)(C)C(=O)C=C[C@]2(C)C2CCC3(C)C(c4ccoc4)C(=O)[C@H]4O[C@]43[C@]12C (stereo partly drawn) | > 15.5 µM | 12 µM | 
c1ccc2c(c1)CC1COc3ccccc3C1O2 (stereo not drawn) | > 200 µM | 70.8 µM | 
CC(=O)Oc1ccc2c(=O)c(C(C)=O)coc2c1 |  |  | inactive
C(=N\NC1=NCCCN1)/c1ccc(-c2cn3cc(/C=N/NC4=NCCCN4)ccc3n2)cc1 | > 100 µM | 18.6 µM | 
CCOC(=O)C1(C(C)=O)OC(=O)c2cnccc21 (stereo not drawn) | > 200 µM | > 200 µM | 
COc1ccccc1N1C(=O)/C(=C\c2cc(OC)c(OC)c(OC)c2)S(=O)(=O)C1c1ccccc1 (stereo not drawn) | > 200 µM | 38 µM | 
CCOC(=O)c1ccccc1NNC(=O)CCC(=O)O | > 224 µM | 219 µM | 
CCS(CC)(CC)CC1CCCC2=CCC(P(=O)(c3ccccc3)c3ccccc3)CC21 (stereo not drawn) | > 15.5 µM | > 15.5 µM | 
COc1cc(C(O)C(O)c2cc(CN3CCOCC3)c(O)c(OC)c2)cc(CN2CCOCC2)c1O (stereo not drawn) | > 200 µM | > 200 µM | 
N#C/C(=C\c1ccc(O)c(O)c1)C(=O)Nc1ccc(C(=O)O)cc1 | > 200 µM | 38.9 µM | 
CN1CCCOC(c2ccc([N+](=O)[O-])cc2)O1 (stereo not drawn) | > 200 µM | > 200 µM | 
CC(C)(CO)CNc1nc(N)nc(Cl)c1N | > 200 µM | > 200 µM | 
CCOC(=O)C1(C/C=C/CCl)CCCC1=O (stereo not drawn) | > 200 µM | 10 µM | 

SMILES | EC50 | IC50 | outcome
N=C([Se])c1ncn(C2OC(CO)C(O)C2O)c1N (stereo not drawn) | > 389 µM | 30.2 µM | 
C[N+](C)(C)CCCC#CC[N+]1(C)CCOCC1 |  |  | inactive
Cn1c(=O)c2nc3c(=O)n(C)c(=O)n(CC(N)=O)c3nc2n(C)c1=O | > 200 µM | > 200 µM | 
Cc1cc(C)n2c(nc3ccccc32)c1C#N | > 200 µM | 148 µM | 
CSC1=NC(C(N)=O)C(N)N1C (stereo not drawn) | > 200 µM | > 200 µM | 
CCCCCNC(=O)CCCCCCCCCCCNC(=O)CCCCCCCCCCN1C=CC(=CC=C2C=CC(=O)C=C2)C=C1 |  |  | inactive
CC(=O)OC1=C(CC2CCCC2=O)C(=O)CC1 (stereo not drawn) |  |  | inactive
COc1cc(Nc2cnc3ccc(C(F)(F)F)cc3n2)cc(OC)c1OC | > 35.5 µM | 6.92 µM | 
O=C(O)c1c(O)ccc(O)c1C(=O)Nc1ccc(/C=C/c2ccc(NC(=O)c3c(O)ccc(O)c3C(=O)O)cc2S(=O)(=O)O)c(S(=O)(=O)O)c1 | 17.8 µM | > 200 µM | 
O=c1c2c([nH]n1-c1ccccc1)-c1ccccc1CS2 | > 204 µM | 135 µM | 
O=c1oc2ccccc2c(O)c1Cc1ccccc1Cc1c(O)c2ccccc2oc1=O | > 200 µM | 102 µM | 
Cn1cc(NC(=O)c2nc(NC(=O)c3nc(NC(=O)c4ccc(C(=O)Nc5cn(C)c(C(=O)Nc6cn(C)c(C(=O)Nc7cn(C)c(C(=O)NCCC(=N)N)n7)n6)n5)cc4)cn3C)cn2C)nc1C(=O)NCCC(=N)N | > 12.9 µM | 2.34 µM | 
Cc1ccc(Nc2[nH]c(=O)[nH]c(=O)c2C)cc1Cl | > 200 µM | 158 µM | 
CC(=O)OC1(C)C(=O)OC1(C)C(C)=O (stereo not drawn) |  |  | inactive
CCNC(=S)N/N=C(/C)c1cccc(/C(C)=N\NC(=S)NCC)n1 | > 200 µM | 2.19 µM | 
Cc1ccc2c(c1)[nH]c(=S)n2C=C1C(=O)CC(C)(C)CC1=O | > 200 µM | > 200 µM | 
c1ccc(CCCC2Sc3cccc4cccc(c34)S2)cc1 | > 11.7 µM | > 11.7 µM | 
CCSSc1ccccc1C(=O)NC(CC)CO (stereo not drawn) | > 200 µM | 5.01 µM | 
CC(C)c1ccc(C(=O)c2ccccc2C(=O)O)cc1 | > 200 µM | > 200 µM | 
O=C1CNC(=O)c2c(ncn2C2OC(CO)CC2O)N1 (stereo not drawn) | > 302 µM | > 302 µM | 
COc1nccnc1NS(=O)(=O)c1ccc(N)cc1 | > 200 µM | > 200 µM | 

SMILES | EC50 | IC50 | outcome
C=C1C(=O)OC2C1C(OC(=O)/C(=C/C)COC(C)=O)CC1(CO1)C1C(OC(=O)/C(=C/C)CO)C=C(C)C21 (stereo not drawn) |  |  | inactive
Cc1cn(C2CC(F)C(COC(=O)CCCCCCCCCCCBr)O2)c(=O)[nH]c1=O (stereo not drawn) | 0.024 µM | 28.8 µM | 
CCOC(=O)/C(=C/c1ccc(OC)cc1)P(=O)(OCC)OCC | > 380 µM | 20.4 µM | 
O=S(O)c1cc(Cl)cc(Cl)c1O |  |  | inactive
COC(=O)C1=C(C)C=C(N2CCOCC2)C(C(=O)OC)C1c1ccccc1 (stereo not drawn) | > 200 µM | > 200 µM | 
COc1ccc(N=C2C(=Nc3ccc(OC)cc3)N(c3ccccc3[N+](=O)[O-])C(=S)N2c2ccc(OC)cc2)cc1 | > 200 µM | 47.9 µM | 
CN/N=C(\C(=O)Nc1ccc(C(F)(F)F)cc1[N+](=O)[O-])C(c1cnc2ccc([N+](=O)[O-])cc2n1)[N+](=O)[O-] (stereo not drawn) | > 251 µM | 138 µM | 
COc1ccc(CN2COc3c(ccc4cccnc34)C2)cc1 | > 200 µM | 0.759 µM | 
O=C(c1ccccc1)N1C/C(=N\Nc2ccc(Cl)cc2)c2c([nH]c3ccccc23)C1 | > 9.12 µM | > 9.12 µM | 
O=C1Nc2ccccc2Cn2c1cc1oc(-c3ccccc3)cc12 | > 200 µM | 191 µM | 
O=P1(Oc2ccc(Cl)cc2)OCCS1 (stereo not drawn) | > 200 µM | > 200 µM | 
C[C@H]1Oc2cc(O)c3ccc(=O)oc3c2C(=O)[C@@H]1C | > 200 µM | 17 µM | 
CC(C)OCC(O)COc1ccc2ccc(=O)oc2c1 (stereo not drawn) | > 200 µM | > 200 µM | 
C=C1[C@H](OC(=O)C(C)C)[C@]23CC4(O)[C@@H]5[C@@]6(C)CCC[C@]57C([C@@H]2C[C@@]1(O)[C@H](O)[C@@H]73)N4C6 | 61.7 µM | > 200 µM | 
C=CCc1cc(OC)c2c(c1)C(OC(C)=O)CC(c1ccc(OC)c(OC)c1)O2 (stereo not drawn) | > 46.8 µM | > 46.8 µM | 
CC1(C)CCCC2CC2CCC(C)(C)C1=O (stereo not drawn) | > 200 µM | 105 µM | 
COc1ccccc1/C=C1\NC(=S)N(/C=C2\C(=O)Oc3ccccc3C2=O)C1=O | > 200 µM | 81.3 µM | 
O=C(Nc1cccc([N+](=O)[O-])c1)/C(=N\NC(=O)c1ccncc1)c1nc2ccc([N+](=O)[O-])cc2[nH]c1=O | > 135 µM | 47.9 µM | 
CC(=C/c1ccccc1)/C=C1/NC(=S)N(CN2CCCCCC2)C1=O | > 200 µM | 110 µM | 
Cc1cc2c(c(C(N)=O)c1C)-c1cccc(F)c1C2=O |  |  | inactive
COC(=O)C(C)(C)N=CN(C)C | > 1450 µM | > 1450 µM | 
